Measured values published in patent US9340577B2, “HLA binding motifs and peptides and their uses” (priority 1992, dated 2016).
Where two headings read alike, the source gives them in different places. Residues, ends and D or L forms follow the SMILES beside them. No end group written: not given here.

How the values were obtained:
B*3501 = B*3501 (Homo sapiens, UniProt P01889, A329T/A93T/A95T/C349S/D201E/D98Y/E176V/E187L/E204Q/E69T/I218V/K202T/L119I/Q94N/R155S/R180L/S121R/S35A/S48A/T118I/V127L/V306I/V36M/Y140S/Y91F); test: biochemical
B*3502 = B*3502 (Homo sapiens, UniProt P01889, A329T/A93T/A95T/C349S/D138N/D201E/D98Y/E176V/E187L/E204Q/E69T/I218V/K202T/L119I/L133F/Q94N/R155S/R180L/S121R/S35A/S48A/T118I/V127L/V306I/V36M/Y91F); test: biochemical; assay type: binding
B*5401 (B54) = B*5401 (B54) (Homo sapiens, UniProt P01889, A329T/C349S/D138N/D201E/E176V/E187T/E204Q/E69G/I76V/K202T/L119W/R155S/R180L/S121T/S35A/S48A/V127L/V306I/V36M/Y140L); conditions: read-out: BINDING CAPACITY (IC50 nM) B*5401
B*3503 = B*3503 (Homo sapiens, UniProt P01889, A329T/A93T/A95T/C349S/D201E/D98Y/E176V/E187L/E204Q/E69T/I218V/K202T/L119I/Q94N/R155S/R180L/S121R/S35A/S48A/T118I/V127L/V306I/V36M/Y140F/Y91F); test: biochemical; assay type: binding
B*0702 (B*0701) = B*0702 (B*0701) (Homo sapiens, UniProt P01889); test: biochemical; assay type: binding
DR7 (DRB1*0701) = DR7 (DRB1*0701) (Homo sapiens, UniProt P01903+P01911, A100R/A102G/A103Q/D57E/D86V/E43K/F76Y/K127E/L162R/M171V/P40G/Q125H/Q99D/R33Q/R42Y/R54Q/S133A/S66F/T210M/V115G/Y107V/Y59L/Y89S); test: biochemical; assay type: binding; conditions: read-out: DRB1*0701
DRB1*0901 = DRB1*0901 (Homo sapiens, UniProt P01903+P01911, A100R/A103E/D57H/D86V/F55Y/F60I/F76Y/I96F/K127E/L162R/M171V/P40D/Q125H/Q99R/R33Q/R42F/S133A/S66N/T210M/V115G/W38K/Y107V/Y59G/Y89S); test: biochemical; assay type: binding; conditions: read-out: DRB1*0901
DR1 (DRB1*0101) = DR1 (DRB1*0101) (Homo sapiens, UniProt P01903+P01911, A100R/D57E/F55L/F60I/F76Y/I96L/L162R/M171V/P40L/Q125E/R42F/V115G/Y59C); test: biochemical; assay type: binding; conditions: read-out: DRB1*0101
DRB1*1302 = DRB1*1302 (Homo sapiens, UniProt P01903+P01911, A100E/A169T/K41T/L162R/M171V/P40S/Q125H/Q178H/Q39Y/Q99D/R42S/S66N/T262R/V115G/W38E/Y61H); test: biochemical; assay type: binding; conditions: read-out: DRB1*1302
DRB1*1501 = DRB1*1501 (Homo sapiens, UniProt P01903+P01911); test: biochemical; assay type: binding; conditions: read-out: Binding affinity DRB1 *1501
DRB5*0101 = DRB5*0101 (Homo sapiens, UniProt P01903+Q30154)
DRB3*0101 = DRB3*0101 (Homo sapiens, UniProt P01903+P79483); test: biochemical; assay type: binding; conditions: read-out: DRB3*0101
DR4w4 (DRB1*0401) = DR4w4 (DRB1*0401) (Homo sapiens, UniProt P01903+P01911, A100K/A169T/F76Y/I96L/K127E/L162R/M171V/N62H/P40V/Q125Y/R42H/S133A/S149N/S66Y/V115G/V209L/W38E); test: biochemical; assay type: binding; conditions: read-out: Binding affinity DRB1 *0401
DRB4*0101 = DRB4*0101 (Homo sapiens, UniProt P01903+P13762, G164S); test: biochemical; assay type: binding; conditions: read-out: Binding affinity DRB4 *0101
DRB1*0802 = DRB1*0802 (Homo sapiens, UniProt P01903+P01911, A100R/A103L/A169T/F76Y/H45Y/I96F/K41T/L162R/M171V/P40S/Q125H/Q178H/Q39Y/Q99D/R218S/R42G/S66Y/V115G/W38E); test: biochemical; assay type: binding; conditions: read-out: DRB1*0802
A02 supertype = assay type: binding, human
H-2Db = H-2Db (Mus musculus, UniProt P01899); test: biochemical; assay type: binding, murine
A01 supertype = assay type: binding, human
A03/11 supertype = assay type: binding, human

Compound: CC(C)C[C@H](NC(=O)[C@H](C)NC(=O)[C@@H](NC(=O)[C@H](CC(C)C)NC(=O)[C@H](C)NC(=O)[C@@H](NC(=O)[C@@H](NC(=O)[C@H](CCCNC(=N)N)NC(=O)[C@@H]1CCCN1C(=O)[C@H](C)N)[C@@H](C)O)C(C)C)[C@@H](C)O)C(=O)O [APRTVALTAL]
- IC50 (B*3501): > 30 µM
- IC50 (B*3502): > 30 µM
- IC50 (B*5401 (B54)): 17300 nM
- IC50 (B*3503): > 30 µM
- IC50 (B*0702 (B*0701)): 0.0042 µM

Compound: CSCC[C@H](NC(=O)[C@H](Cc1ccccc1)NC(=O)[C@H](CCCCN)NC(=O)[C@@H](NC(=O)[C@@H](NC(=O)[C@H](CCCCN)NC(=O)[C@H](CCC(N)=O)NC(=O)[C@@H]1CCCN1C(=O)[C@H](Cc1c[nH]cn1)NC(=O)[C@@H](NC(=O)[C@H](CCC(N)=O)NC(=O)[C@H](C)NC(=O)[C@@H](N)CS)C(C)C)C(C)C)[C@@H](C)O)C(=O)N[C@@H](CC(C)C)C(=O)N[C@@H](CS)C(=O)O [Peptide 68.0078]
- IC50 (DR7 (DRB1*0701)): 32.3 µM
- IC50 (DRB1*0901): 34.9 µM
- IC50 (DR1 (DRB1*0101)): 10.2 µM
- IC50 (DRB1*1302): 2.19 µM
- IC50 (DRB1*1501): 0.809 µM
- IC50 (DRB5*0101; read-out: Binding affinity DRB5 *0101): 1.23 µM
- IC50 (DRB3*0101): > 13.5 µM
- IC50 (DR4w4 (DRB1*0401)): 2.57 µM
- IC50 (DRB4*0101): 0.604 µM
- IC50 (DRB1*0802): 8.73 µM

Compound: CC(C)C[C@H](NC(=O)[C@H](Cc1c[nH]c2ccccc12)NC(=O)[C@H](CCCCN)NC(=O)CNC(=O)[C@H](CC(C)C)NC(=O)[C@H](CS)NC(=O)[C@H](Cc1c[nH]cn1)NC(=O)[C@H](CS)NC(=O)[C@@H](NC(=O)[C@H](CCCNC(=N)N)NC(=O)[C@H](CCC(=O)O)NC(=O)[C@H](CC(C)C)NC(=O)[C@H](CO)NC(=O)[C@H](Cc1c[nH]cn1)NC(=O)[C@H](C)NC(=O)[C@@H](N)CCC(N)=O)C(C)C)C(=O)NCC(=O)N[C@@H](Cc1c[nH]cn1)C(=O)N1CCC[C@H]1C(=O)N[C@@H](CC(=O)O)C(=O)N[C@@H](CCCCN)C(=O)O [Peptide 868.01] (H-QAHSLERVCHCLGKWLGHPDK-OH)
- IC50 (DR7 (DRB1*0701)): > 250 µM
- IC50 (DRB5*0101; read-out: DRB5*0101): 2.5 µM

Compound: CC[C@H](C)[C@H](NC(=O)[C@H](CS)NC(=O)[C@@H](NC(=O)[C@@H](N)Cc1ccc(O)cc1)[C@@H](C)O)C(=O)N[C@@H](CC(=O)O)C(=O)NCC(=O)N[C@@H](CCC(N)=O)C(=O)N[C@@H](CS)C(=O)N[C@H](C(=O)N[C@H](C(=O)O)C(C)C)[C@@H](C)O [Peptide 1593.58] (H-YTCIDGQCTV-OH)
- Degeneracy (A02 supertype): 3

Compound: CSCC[C@H](NC(=O)[C@H](Cc1c[nH]c2ccccc12)NC(=O)[C@@H](NC(=O)[C@H](Cc1ccc(O)cc1)NC(=O)[C@H](Cc1ccccc1)NC(=O)[C@H](CC(=O)O)NC(=O)[C@H](Cc1ccc(O)cc1)NC(=O)[C@@H](NC(=O)[C@@H](N)CO)C(C)C)C(C)C)C(=O)O [Peptide F138.03]
- IC50 (H-2Db): 3.37 µM

Compound: AFKDLFVVY
- Degeneracy (A01 supertype): 2

Compound: HTQELFISNIV [Peptide 9013.0316]
- Degeneracy (A02 supertype): 1

Compound: LTISYGRKK [Peptide 66.0060]
- Degeneracy (A03/11 supertype): 2

Compound: SIQFFGEL [Peptide F079.04]
- IC50 (H-2Db): > 44 µM

Compound: SIQFFGERAL [Peptide F079.03]
- IC50 (H-2Db): > 44 µM
